{
  "source": "paper PMC5148695",
  "about": "(Neuropharmacology, 2016)",
  "target": "α4β3δ GABAA receptor (Homo sapiens, UniProt P28472+P48169)",
  "sequence (P48169 36-554)": "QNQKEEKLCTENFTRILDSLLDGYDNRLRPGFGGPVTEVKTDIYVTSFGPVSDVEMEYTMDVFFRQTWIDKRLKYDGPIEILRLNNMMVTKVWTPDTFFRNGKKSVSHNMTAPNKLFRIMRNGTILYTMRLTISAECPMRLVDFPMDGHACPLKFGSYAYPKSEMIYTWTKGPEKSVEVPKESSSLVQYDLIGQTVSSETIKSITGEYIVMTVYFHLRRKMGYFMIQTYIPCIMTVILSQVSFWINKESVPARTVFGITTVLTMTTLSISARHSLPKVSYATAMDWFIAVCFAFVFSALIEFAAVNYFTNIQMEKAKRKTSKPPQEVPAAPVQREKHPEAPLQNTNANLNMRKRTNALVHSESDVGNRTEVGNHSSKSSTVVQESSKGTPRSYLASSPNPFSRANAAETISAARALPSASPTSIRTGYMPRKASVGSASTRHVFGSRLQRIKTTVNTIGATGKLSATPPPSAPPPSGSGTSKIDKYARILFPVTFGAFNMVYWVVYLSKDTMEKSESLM",
  "sequence (P28472 26-473)": "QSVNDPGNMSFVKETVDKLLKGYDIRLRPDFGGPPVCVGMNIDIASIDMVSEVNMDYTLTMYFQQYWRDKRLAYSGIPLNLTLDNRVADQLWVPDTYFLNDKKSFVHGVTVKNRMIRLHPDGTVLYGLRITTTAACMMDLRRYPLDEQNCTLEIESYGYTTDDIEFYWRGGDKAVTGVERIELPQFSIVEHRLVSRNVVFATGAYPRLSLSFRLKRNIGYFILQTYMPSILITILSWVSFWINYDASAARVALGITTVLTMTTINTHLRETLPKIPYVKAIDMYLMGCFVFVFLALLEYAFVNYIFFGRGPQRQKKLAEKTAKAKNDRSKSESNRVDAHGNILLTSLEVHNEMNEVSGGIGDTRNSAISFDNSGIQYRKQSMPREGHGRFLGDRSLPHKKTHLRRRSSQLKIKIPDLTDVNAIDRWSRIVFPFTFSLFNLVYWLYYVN",
  "sequence (O14764 25-452 partner)": "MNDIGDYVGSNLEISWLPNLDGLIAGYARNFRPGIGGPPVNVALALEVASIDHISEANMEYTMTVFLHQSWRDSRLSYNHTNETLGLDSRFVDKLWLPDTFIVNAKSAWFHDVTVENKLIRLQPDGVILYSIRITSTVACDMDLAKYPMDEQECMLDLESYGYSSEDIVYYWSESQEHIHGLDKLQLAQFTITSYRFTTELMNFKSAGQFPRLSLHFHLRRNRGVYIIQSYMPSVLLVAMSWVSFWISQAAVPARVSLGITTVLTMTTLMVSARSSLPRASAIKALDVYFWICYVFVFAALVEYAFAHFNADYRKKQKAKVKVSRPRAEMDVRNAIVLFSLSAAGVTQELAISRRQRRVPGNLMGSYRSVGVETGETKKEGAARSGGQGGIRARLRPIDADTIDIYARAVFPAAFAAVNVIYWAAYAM",
  "assay": "whole-cell patch clamp, potentiation of GABA EC20 current",
  "format": "cell-based",
  "data": [
    {"smiles": "CC(=O)[C@H]1CC[C@H]2[C@@H]3CC[C@H]4C[C@H](O)CC[C@]4(C)[C@H]3CC[C@]12C", "note": "[ALLO]", "values": [
      {"measurement": "EC50", "result": 57, "unit": "nM"}
    ]}
  ]
}
